Assay results as given in patent US12077503B2, “Substituted cyclic amides and their use as herbicides” (FMC CORPORATION, priority 2015, dated 2024).

Columns and labels:
Format in all cases: in vivo
[1] = test system: ryegrass, Italian (Italian ryegrass, Lolium multiflorum); assay: Test A preemergence; conditions: Lolium multiflorum, pre-emergence, 240 h, 0 to 100 scale where 0 is no effect and 100 is complete control, read-out: Ryegrass, Italian plant response rating; for pest or weed control at 31 g/ha: 31 g ai/ha, Preemergence; for pest or weed control at 125 g/ha: 125 g ai/ha, preemergence, visual injury rating, approximately 10 d
Procedure, shortened: (§1)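 Seeded soil received test chemicals as a preemergence directed spray, and seedlings at one to two leaves, 2–10 cm tall, received them postemergence, in a non-phytotoxic, surfactant-containing solvent mixture. Pots were held in a greenhouse for approximately 10 d, then rated for injury from 0, no effect, to 100, complete control.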

[2] = test system: giant foxtail (Setaria faberii); assay: Test A preemergence; conditions: Setaria faberi, pre-emergence, 240 h, 0 to 100 scale where 0 is no effect and 100 is complete control, read-out: Foxtail, Giant plant response rating; for pest or weed control at 31 g/ha: 31 g ai/ha, Preemergence; for pest or weed control at 125 g/ha: 125 g ai/ha, preemergence, visual injury rating, approximately 10 d
Procedure, shortened: as §1

Kochia (Kochia scoparia) [3] = assay: Test A preemergence; conditions: Bassia scoparia, pre-emergence, 240 h, 0 to 100 scale where 0 is no effect and 100 is complete control, read-out: Kochia plant response rating; for pest or weed control at 31 g/ha: 31 g ai/ha, Preemergence; for pest or weed control at 125 g/ha: 125 g ai/ha, preemergence, visual injury rating, approximately 10 d
Procedure, shortened: as §1

[4] = test system: ragweed (common ragweed, Ambrosia elatior); assay: Test A preemergence; conditions: Ambrosia artemisiifolia, pre-emergence, 240 h, 0 to 100 scale where 0 is no effect and 100 is complete control, read-out: Ragweed plant response rating; for pest or weed control at 31 g/ha: 31 g ai/ha, Preemergence; for pest or weed control at 125 g/ha: 125 g ai/ha, preemergence, visual injury rating, approximately 10 d
Procedure, shortened: as §1

[5] = test system: barnyardgrass (Echinochloa crus-galli); assay: Test A preemergence; conditions: Echinochloa crus-galli, pre-emergence, 240 h, 0 to 100 scale where 0 is no effect and 100 is complete control, read-out: Barnyardgrass plant response rating; for pest or weed control at 31 g/ha: 31 g ai/ha, Preemergence; for pest or weed control at 125 g/ha: 125 g ai/ha, preemergence, visual injury rating, approximately 10 d
Procedure, shortened: as §1

[6] = test system: pigweed (Amaranthus retroflexus); assay: Test A preemergence; conditions: Amaranthus retroflexus, pre-emergence, 240 h, 0 to 100 scale where 0 is no effect and 100 is complete control, read-out: Pigweed plant response rating; for pest or weed control at 31 g/ha: 31 g ai/ha, Preemergence; for pest or weed control at 125 g/ha: 125 g ai/ha, preemergence, visual injury rating, approximately 10 d
rice (Oryra sativa) = assay: Test B flooded paddy test; conditions: Oryza sativa, 250 g ai/ha, Flood; 0 to 100 scale where 0 is no effect and 100 is complete control; read-out: Rice plant response rating
Procedure, shortened: (§2)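 Flooding to 3 cm over soil accompanied treatment, which consisted of adding compound to the standing water around 2-leaf plants; depth was then maintained. Visual assessment versus controls followed at 13 to 15 d (scale 0–100, 0 meaning no effect).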

[7] = test system: ducksalad (Heteranthera limosa); assay: Test B flooded paddy test; conditions: Heteranthera limosa, 250 g ai/ha, Flood; 0 to 100 scale where 0 is no effect and 100 is complete control; read-out: Ducksalad plant response rating
Procedure, shortened: as §2

[8] = test system: barnyardgrass (Echinochloa crus-galli); assay: Test B flooded paddy test; conditions: Echinochloa crus-galli, 250 g ai/ha, Flood; 0 to 100 scale where 0 is no effect and 100 is complete control; read-out: Barnyardgrass plant response rating
Procedure, shortened: as §2

[9] = test system: sedge, umbrella (small-flower umbrella sedge, Cyperus difformis); assay: Test B flooded paddy test; conditions: Cyperus difformis, 250 g ai/ha, Flood; 0 to 100 scale where 0 is no effect and 100 is complete control; read-out: Sedge, Umbrella plant response rating
Procedure, shortened: as §2

corn (Zea mays) = assay: Test A postemergence; conditions: Zea mays, post-emergence, 240 h, Postemergence, read-out: Corn plant response rating (0 to 100 scale); for plant injury at 125 g/ha: 125 g ai/ha, visual rating about 10 d after treatment; for plant injury at 31 g/ha: 31 g ai/ha, 0 is no effect, 100 is complete control
Procedure, shortened: as §1

[10] = test system: ryegrass, Italian (Italian ryegrass, Lolium multiflorum); assay: Test A postemergence; conditions: Lolium multiflorum, post-emergence, 240 h, Postemergence, read-out: Ryegrass, Italian plant response rating (0 to 100 scale); for pest or weed control at 125 g/ha: 125 g ai/ha, visual rating about 10 d after treatment; for pest or weed control at 31 g/ha: 31 g ai/ha, 0 is no effect, 100 is complete control
Procedure, shortened: as §1

[11] = test system: giant foxtail (Setaria faberii); assay: Test A postemergence; conditions: Setaria faberi, post-emergence, 240 h, Postemergence, read-out: Foxtail, Giant plant response rating (0 to 100 scale); for pest or weed control at 125 g/ha: 125 g ai/ha, visual rating about 10 d after treatment; for pest or weed control at 31 g/ha: 31 g ai/ha, 0 is no effect, 100 is complete control
Procedure, shortened: as §1

Kochia (Kochia scoparia) [12] = assay: Test A postemergence; conditions: Bassia scoparia, post-emergence, 240 h, Postemergence, read-out: Kochia plant response rating (0 to 100 scale); for pest or weed control at 125 g/ha: 125 g ai/ha, visual rating about 10 d after treatment; for pest or weed control at 31 g/ha: 31 g ai/ha, 0 is no effect, 100 is complete control
Procedure, shortened: as §1

[13] = test system: ragweed (common ragweed, Ambrosia elatior); assay: Test A postemergence; conditions: Ambrosia artemisiifolia, post-emergence, 240 h, Postemergence, read-out: Ragweed plant response rating (0 to 100 scale); for pest or weed control at 125 g/ha: 125 g ai/ha, visual rating about 10 d after treatment; for pest or weed control at 31 g/ha: 31 g ai/ha, 0 is no effect, 100 is complete control
Procedure, shortened: as §1

[14] = test system: barnyardgrass (Echinochloa crus-galli); assay: Test A postemergence; conditions: Echinochloa crus-galli, post-emergence, 240 h, Postemergence; for pest or weed control at 125 g/ha: 125 g ai/ha, visual rating about 10 d after treatment, read-out: Barnyardgrass plant response rating (0 to 100 scale, 0 no effect, 100 complete control); for pest or weed control at 31 g/ha: 31 g ai/ha, 0 is no effect, 100 is complete control, read-out: Barnyardgrass plant response rating (0 to 100 scale)
Procedure, shortened: as §1

[15] = test system: Galium (catchweed bedstraw, Galium aparine); assay: Test A postemergence; conditions: Galium, post-emergence, 240 h, Postemergence, read-out: Galium plant response rating (0 to 100 scale); for pest or weed control at 125 g/ha: 125 g ai/ha, visual rating about 10 d after treatment; for pest or weed control at 31 g/ha: 31 g ai/ha, 0 is no effect, 100 is complete control
Procedure, shortened: as §1

[16] = test system: wheat (Triticum aestivum); assay: Test A postemergence; conditions: Triticum aestivum, post-emergence, 240 h, Postemergence, read-out: Wheat plant response rating (0 to 100 scale); for plant injury at 125 g/ha: 125 g ai/ha, visual rating about 10 d after treatment; for plant injury at 31 g/ha: 31 g ai/ha, 0 is no effect, 100 is complete control
Procedure, shortened: as §1

[17] = test system: blackgrass (Alopecurus myosuroides); assay: Test A postemergence; conditions: Alopecurus myosuroides, post-emergence, 240 h, Postemergence, read-out: Blackgrass plant response rating (0 to 100 scale); for pest or weed control at 125 g/ha: 125 g ai/ha, visual rating about 10 d after treatment; for pest or weed control at 31 g/ha: 31 g ai/ha, 0 is no effect, 100 is complete control
Procedure, shortened: as §1

[18] = test system: pigweed (Amaranthus retroflexus); assay: Test A postemergence; conditions: Amaranthus retroflexus, post-emergence, 240 h, Postemergence, read-out: Pigweed plant response rating (0 to 100 scale); for pest or weed control at 125 g/ha: 125 g ai/ha, visual rating about 10 d after treatment; for pest or weed control at 31 g/ha: 31 g ai/ha, 0 is no effect, 100 is complete control
Procedure, shortened: as §1

SMILES	pest or weed control at 31 g/ha [1] [%]	pest or weed control at 125 g/ha [1] [%]	pest or weed control at 31 g/ha [2] [%]	pest or weed control at 125 g/ha [2] [%]	pest or weed control at 31 g/ha (Kochia (Kochia scoparia) [3]) [%]	pest or weed control at 125 g/ha (Kochia (Kochia scoparia) [3]) [%]	pest or weed control at 31 g/ha [4] [%]	pest or weed control at 125 g/ha [4] [%]	pest or weed control at 31 g/ha [5] [%]	pest or weed control at 125 g/ha [5] [%]	pest or weed control at 31 g/ha [6] [%]	pest or weed control at 125 g/ha [6] [%]	pest or weed control at 250 g/ha (rice (Oryra sativa)) [%]	pest or weed control at 250 g/ha [7] [%]	pest or weed control at 250 g/ha [8] [%]	pest or weed control at 250 g/ha [9] [%]	plant injury at 125 g/ha (corn (Zea mays)) [%]	plant injury at 31 g/ha (corn (Zea mays)) [%]	pest or weed control at 125 g/ha [10] [%]	pest or weed control at 31 g/ha [10] [%]	also measured
Cc1ccc([C@H]2CN(C)C(=O)[C@@H]2C(=O)Nc2c(F)c(F)c(F)c(F)c2F)cc1 [Compound 1292]	0	40	70	80	60	60	0	0	0	50	40	40	15	0	0	0	0	0	0	0	pest or weed control at 125 g/ha [11]: 0%; pest or weed control at 31 g/ha [11]: 0%; pest or weed control at 125 g/ha (Kochia (Kochia scoparia) [12]): 0%; pest or weed control at 31 g/ha (Kochia (Kochia scoparia) [12]): 0%; pest or weed control at 125 g/ha [13]: 0%; pest or weed control at 31 g/ha [13]: 0%; pest or weed control at 125 g/ha [14]: 0%; pest or weed control at 31 g/ha [14]: 0%; pest or weed control at 125 g/ha [15]: 0%; pest or weed control at 31 g/ha [15]: 0%; plant injury at 125 g/ha [16]: 0%; plant injury at 31 g/ha [16]: 0%; pest or weed control at 125 g/ha [17]: 0%; pest or weed control at 31 g/ha [17]: 0%; pest or weed control at 125 g/ha [18]: 0%; pest or weed control at 31 g/ha [18]: 0%
CN1C[C@H](c2cc(Cl)cc(Cl)c2)[C@@H](C(=O)Nc2cccc(F)c2F)C1=O [Compound 1270]	0	40	90	90	40	60	0	30	70	90	0	40	15	80	60	0	20	0	30	0	pest or weed control at 125 g/ha [11]: 80%; pest or weed control at 31 g/ha [11]: 60%; pest or weed control at 125 g/ha (Kochia (Kochia scoparia) [12]): 60%; pest or weed control at 31 g/ha (Kochia (Kochia scoparia) [12]): 0%; pest or weed control at 125 g/ha [13]: 0%; pest or weed control at 31 g/ha [13]: 0%; pest or weed control at 125 g/ha [14]: 90%; pest or weed control at 31 g/ha [14]: 90%; pest or weed control at 125 g/ha [15]: 70%; pest or weed control at 31 g/ha [15]: 60%; plant injury at 125 g/ha [16]: 40%; plant injury at 31 g/ha [16]: 0%; pest or weed control at 125 g/ha [17]: 40%; pest or weed control at 31 g/ha [17]: 0%; pest or weed control at 125 g/ha [18]: 60%; pest or weed control at 31 g/ha [18]: 40%
